These results are taken from ChEMBL document CHEMBL3244202, “Synthesis and analgesic-antiinflammatory activity of some 4- and 5-substituted heteroarylsalicylic acids” (J Med Chem, 1978).

SMILES strings stand for the structures. Values after ≈ are worked out from the molar mass of the structure shown.

Data set [1] deals with Rattus norvegicus. The experiment in a line: Antiinflammatory activity in po dosed rat assessed as inhibition of carrageenan-induced paw edema. Type of data set: functional. In general terms: Carrageenan injected into the paw causes an acute inflammation.
Data set [2] can be described thus: Aqueous solubility of the compound in phosphate buffer at pH 7. Type of data set: physicochemical.
Data set [3] deals with Rattus norvegicus. Nature of the data set: Analgesic activity in po dosed rat by hyperesthesia test. The format is functional.
Data set [4] deals with Rattus norvegicus. The experiment in a line: Gastrointestinal toxicity in rat assessed as gastric hemorrhage administered on days 17 to 20 measured on day 20. The format is organism-based, Stomach. As to conditions: in vivo.
A further data set concerns Canis familiaris. Nature of the data set: Antiinflammatory activity in po dosed dog assessed as reduction in urate synovitis measured after 2 hrs. The format is functional. To be noted: Canis lupus familiaris.
Data set [5] has as its system Rattus norvegicus. Nature of the data set: Antipyretic activity in po dosed rat assessed as dose required to produce drop in body temperature of 1 degC administered on days 17 to 20 measured on day 20. To be noted: 480 h. The format is functional.
For a further data set, the species on record is Homo sapiens. Nature of the data set: Inhibition of prostaglandin synthetase (unknown origin).
The subject of data set [6] is Rattus norvegicus. Nature of the data set: Antiinflammatory activity in po dosed Wistar rat assessed as reduction in adjuvant arthritis-induced lesion administered on days -1 through 1 measured on days 0 and 14.
The test system of data set [7] is Rattus norvegicus. The experiment in a line: Antiinflammatory activity in po dosed rat assessed as reduction in adjuvant arthritis-induced lesion administered for 1 to 14 days measured on day 14. Type of data set: functional.
The subject of data set [8] is Rattus norvegicus. The experiment in a line: Antiinflammatory activity in po dosed rat assessed as reduction in adjuvant arthritis-induced lesion administered on days 17 to 20 post adjuvant arthritis-challenge measured on day 20. To be noted: 480 h. Type of data set: functional.
In data set [9] the test system is Rattus norvegicus. Nature of the data set: Antipyretic activity in po dosed rat administered on days 17 to 20 measured on day 20. As to conditions: 480 h.

As a reminder, the ED50 is the dose that gives a 50% effect, or the effect in half of the subjects. Usually solubility stands for how much of the substance goes into solution per volume. Low values mean a poorly soluble substance, high ones a readily soluble substance.

On to `O=C(O)c1cc(-c2ncc[nH]2)ccc1O`, for which the ED50 in the data set on Rattus norvegicus [1] turned out to be 200 mg/kg.
On to `O=C(O)c1ccc(-c2cscn2)cc1O`, for which the ED50 was 70 mg/kg with Rattus norvegicus [1] and greater than 80 mg/kg in the data set with Rattus norvegicus [3]. The concentration in solution in [2] (solubility) was 8700 µg/mL (≈ 39.3 mM).
With `O=C(O)c1cc(-c2cncs2)ccc1O`, the ED50 in the data set with Rattus norvegicus [1] was greater than 200 mg/kg.
As for `O=C(O)c1ccccc1O` [SALICYLIC ACID], the ED50 with Rattus norvegicus [1] was 200 mg/kg; in the data set on Rattus norvegicus [3], greater than 150 mg/kg.
Consider `O=C(O)c1cc(-c2ccccn2)ccc1O`, for which the ED50 in the data set with Rattus norvegicus [1] was determined as 200 mg/kg.
Consider `O=C(O)c1cc(-n2cncn2)ccc1O`, for which the ED50 in the data set on Rattus norvegicus [1] turned out to be 200 mg/kg.
For the compound `O=C(O)c1cc(-n2cccc2)ccc1O`, the ED50 in the data set with Rattus norvegicus [4] is greater than 800 mg/kg; with Canis familiaris, 39 mg/kg; in the data set on Rattus norvegicus [6] it was 58 mg/kg; with Rattus norvegicus [1] it was 50 mg/kg; in the data set on Rattus norvegicus [7], 64 mg/kg; in the data set with Rattus norvegicus [8] it was 35 mg/kg. Besides, in the data set on Rattus norvegicus [3], it took a dose of 30 mg/kg to reach the 50% effect level (ED50). Further, the ED10 in the data set on Rattus norvegicus [5] was determined as 401 mg/kg. The compound also gave an ID50 in the data set listed under Homo sapiens of 0.3 µg/mL (≈ 0.00148 mM). For the same compound, in [2], the solubility is 8600 µg/mL (≈ 42.3 mM).
Take `O=C(O)c1cc(-c2nccs2)ccc1O`: the ED50 in the data set with Rattus norvegicus [1] was greater than 250 mg/kg.
In the case of `O=C(O)c1cc(-c2cnco2)ccc1O`, the ED50 in the data set with Rattus norvegicus [1] was greater than 200 mg/kg.
On to `O=C(O)c1cc(-n2ccnc2)ccc1O`, for which the ED50 in the data set with Rattus norvegicus [1] came to 75 mg/kg; with Rattus norvegicus [3], 65 mg/kg. Also, in [2], the concentration in solution (solubility) was 2000 µg/mL (≈ 9.8 mM).
Consider `O=C(O)c1ccc(-c2nccs2)cc1O`, for which the median effective dose (ED50) in the data set on Rattus norvegicus [1] is 110 mg/kg.
`O=C(O)c1cc(-c2ncco2)ccc1O`: in the data set on Rattus norvegicus [1], the ED50 was 100 mg/kg. The compound further showed a solubility in data set [2] of 6000 µg/mL (≈ 29.2 mM).
Take `O=C(O)c1ccc(-c2ncco2)cc1O`: in the data set on Rattus norvegicus [1], the ED50 is greater than 250 mg/kg.
For the compound `O=C(O)c1cc(-c2ccns2)ccc1O`, the figures for the ED50 in the data set on Rattus norvegicus [1] and in the data set with Rattus norvegicus [3] were 80 mg/kg and greater than 80 mg/kg, respectively. The compound also had a solubility in data set [2] of 7300 µg/mL (≈ 33 mM).
Regarding `CC(=O)Oc1ccc(-n2cccc2)cc1C(=O)O`, the results for the ED50 with Rattus norvegicus [1] and with Rattus norvegicus [3] were 42 mg/kg and 35 mg/kg, respectively.
Regarding `O=C(O)c1cc(-c2cc[nH]n2)ccc1O`, the ED50 with Rattus norvegicus [1] is greater than 250 mg/kg.
In the case of `O=C(O)c1cc(-n2cccn2)ccc1O`, the ED50 in the data set on Rattus norvegicus [1] amounted to 200 mg/kg.
On to `CC(=O)Oc1ccccc1C(=O)O` [ASPIRIN], for which the ED50 with Rattus norvegicus [4] amounted to 16 mg/kg; in the data set on Canis familiaris, 68 mg/kg; with Rattus norvegicus [9] it was 43 mg/kg; with Rattus norvegicus [6], 46 mg/kg; in the data set on Rattus norvegicus [1], 90 mg/kg; in the data set on Rattus norvegicus [7] it was 33 mg/kg. In addition, the ED50 in the data set with Rattus norvegicus [8] was 25 mg/kg; in the data set with Rattus norvegicus [3], 90 mg/kg. For the same compound, the ID50 in the data set filed under Homo sapiens worked out at 5 µg/mL (≈ 0.0278 mM).
In the case of `O=C(O)c1cc(-c2ccc(F)cc2F)ccc1O` [DIFLUNISAL], the ED50 in the data set on Rattus norvegicus [1] came out at 9.8 mg/kg; in the data set with Rattus norvegicus [3] it was 4.6 mg/kg.
`O=C(O)c1cc(-c2ncccn2)ccc1O`: the ED50 with Rattus norvegicus [1] came out at 100 mg/kg. The same compound displayed a solubility in data set [2] of 6000 µg/mL (≈ 27.8 mM).
`O=C(O)c1cc(-c2ccncn2)ccc1O`: in the data set with Rattus norvegicus [1], the ED50 was greater than 200 mg/kg.
The same measure, in the same setting: the value for `O=C(O)c1ccc(-n2cccc2)cc1O` was 200 mg/kg.
On to `O=C(O)c1cc(-c2cccnc2)ccc1O`, for which the ED50 with Rattus norvegicus [1] is greater than 250 mg/kg.
With `CCCCOC(=O)Oc1ccc(-n2cccc2)cc1C(=O)O`, the values for the ED50 in the data set with Rattus norvegicus [1] and with Rattus norvegicus [3] were 52 mg/kg and 38 mg/kg, respectively.
For the compound `O=C(O)c1cc(-c2csnn2)ccc1O`, the ED50 in the data set on Rattus norvegicus [1] was greater than 200 mg/kg.
Consider `O=C(O)c1cc(-n2cnnc2)ccc1O`, for which the ED50 in the data set on Rattus norvegicus [1] was greater than 250 mg/kg.
As to `O=C(O)c1cc(-n2ccnn2)ccc1O`, the ED50 in the data set on Rattus norvegicus [1] came to 150 mg/kg.
With `O=C(O)c1cc(-c2cscn2)ccc1O`, the results for the ED50 in the data set on Rattus norvegicus [1] and in the data set on Rattus norvegicus [3] were 95 mg/kg and 90 mg/kg, respectively. The compound further came in with a solubility in data set [2] of 2700 µg/mL (≈ 12.2 mM).
On to `O=C(O)c1cc(-c2ccno2)ccc1O`, for which the ED50 in the data set on Rattus norvegicus [1] worked out at 110 mg/kg.
`O=C(O)c1cc(-n2nccn2)ccc1O`: the ED50 in the data set on Rattus norvegicus [1] is 150 mg/kg.
In the case of `O=C(O)c1cc(-c2cccs2)ccc1O`, the ED50 in the data set with Rattus norvegicus [1] is 60 mg/kg. In addition, the concentration in solution in [2] (solubility) was 7000 µg/mL (≈ 31.8 mM).
With `O=C(O)c1cc(-c2cocn2)ccc1O`, the ED50 in the data set with Rattus norvegicus [1] is 110 mg/kg.
Turning to `O=C(O)c1cc(C2N=NN=N2)ccc1O`, in the data set on Rattus norvegicus [1], the ED50 stood at 110 mg/kg. Moreover, the solubility in [2] was found to be 1700 µg/mL (≈ 8.25 mM).
Take `O=C(O)c1cc(-c2c[nH]cn2)ccc1O`: in the data set with Rattus norvegicus [1], the ED50 came out at 100 mg/kg. Further, the solubility in data set [2] came out at 1100 µg/mL (≈ 5.39 mM).
